Reference: ChEMBL document CHEMBL1629535, “Novel small molecule inhibitors of MDR Mycobacterium tuberculosis by NMR fragment screening of antigen 85C” (2010)
Converted amounts (≈) assume the structure as drawn. The source made the active and inactive calls. The calls are words filed in the database; no cut-off is given here.

Molecular target: Diacylglycerol acyltransferase/mycolyltransferase Ag85C (Mycobacterium tuberculosis) (UniProt P9WQN9)
Experiment: Binding affinity to substrate binding site of multidrug resistance Mycobacterium tuberculosis antigen 85C by NMR assay

Diacylglycerol acyltransferase/mycolyltransferase Ag85C (Mycobacterium tuberculosis), sequence (P9WQN9 whole entry): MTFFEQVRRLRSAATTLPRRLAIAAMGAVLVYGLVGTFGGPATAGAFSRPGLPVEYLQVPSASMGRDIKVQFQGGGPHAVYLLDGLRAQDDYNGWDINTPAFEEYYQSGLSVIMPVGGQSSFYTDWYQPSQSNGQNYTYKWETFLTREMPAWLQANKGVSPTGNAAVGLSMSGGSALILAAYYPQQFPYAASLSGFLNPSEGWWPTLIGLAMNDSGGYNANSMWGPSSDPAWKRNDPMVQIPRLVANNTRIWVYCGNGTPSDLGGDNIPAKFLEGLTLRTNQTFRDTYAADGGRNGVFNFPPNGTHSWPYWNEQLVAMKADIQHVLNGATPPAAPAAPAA

**Q.** `N#Cc1c(N)sc2c1CCCCC2` was tested. Which Activity did it give?
**A.** Its Activity is “Active”.

**Q.** How did the Activity turn out when `CCN1CCc2c(sc(N)c2C#N)C1` was run?
**A.** Its Activity is “inactive”.

**Q.** Which Activity does the source give for `CC(=O)c1c(N)sc2c1CCCC2` here?
**A.** The Activity was “Active”.

**Q.** With `CCC1(C)Cc2c(sc(N)c2C#N)CO1` (stereo not drawn) as the compound, how does the Activity read?
**A.** The Activity was “inactive”.

**Q.** Which Activity does the source give for `CC1CCc2c(sc(N)c2C#N)C1` (stereo not drawn) here?
**A.** The Activity was “Active”.

**Q.** `CC1(C)Cc2c(sc(N)c2C#N)CO1` was tested. Which Activity did it give?
**A.** The Activity was “inactive”.

**Q.** For `N#Cc1c(N)sc2c1C1CCN2CC1`, which Activity is on record?
**A.** The Activity was “inactive”.

**Q.** `CCC1CCc2c(sc(N)c2C#N)C1` (stereo not drawn) was tested. Which Activity did it give?
**A.** The Activity was “Active”.

**Q.** With `CCCC1CCc2c(sc(N)c2C(N)=O)C1` (stereo not drawn) as the compound, how does the Activity read?
**A.** Its Activity is “Active”.

**Q.** `CCOC(=O)c1c(N)sc2c1C(C)CCC2` (stereo not drawn) was tested. Which Activity did it give?
**A.** The Activity was “Active”.

**Q.** For `COC(=O)c1c(N)sc2c1CCCC2`, which Activity is on record?
**A.** The Activity was “Active”.

**Q.** How did the Activity turn out when `N#Cc1c(N)sc2c1CCCC2` was run?
**A.** Its Activity is “Active”.

**Q.** `CC(=O)Nc1sc2c(c1C#N)CCCC2` was tested. Which Activity did it give?
**A.** Its Activity is “inactive”.

**Q.** Which Activity does the source give for `O=c1[nH]c(-c2ccncc2)nc2sc3c(c12)CCCC3` here?
**A.** Its Activity is “inactive”.

**Q.** For `CCCC1CCc2c(sc(N)c2C#N)C1` (stereo not drawn), which Activity is on record?
**A.** Its Activity is “Active”.

**Q.** With `Nc1sc2c(c1C(=O)NCc1ccccc1)CCCC2` as the compound, how does the Activity read?
**A.** The Activity was “inactive”.

**Q.** For `CC1CCc2c(sc(N)c2C(N)=O)C1` (stereo not drawn), which Activity is on record?
**A.** The Activity was “Active”.

**Q.** Which Activity does the source give for `CCC1CCc2c(sc(N)c2C(N)=O)C1` (stereo not drawn) here?
**A.** The Activity was “Active”.

**Q.** `CC(C)C(=O)Nc1sc2c(c1C#N)CCCC2` was tested. Which Activity did it give?
**A.** Its Activity is “inactive”.

System: Mycobacterium tuberculosis
Experiment: Growth inhibition of multidrug resistance Mycobacterium tuberculosis 2745/09
Type: functional

**Q.** Which MIC does the source give for `CCCOc1ccc2nc(N)sc2c1` here?
**A.** Its MIC is 20 µg/mL (≈ 96 µM).

**Q.** For `N#Cc1c(N)sc2c1CCCCC2`, which MIC is on record?
**A.** The MIC was 500 µg/mL (≈ 2600 µM).

**Q.** How did the MIC turn out when `CCC1CCc2c(sc(N)c2C#N)C1` (stereo not drawn) was run?
**A.** The MIC was 50 µg/mL (≈ 242 µM).

**Q.** With `CCCC1CCc2c(sc(N)c2C#N)C1` (stereo not drawn) as the compound, how does the MIC read?
**A.** Its MIC is 50 µg/mL (≈ 227 µM).
